# Reference: ChEMBL document CHEMBL5113401, “Novel 1,3,4-oxadiazole chalcogen analogues: Synthesis and cytotoxic activity” (Eur J Med Chem, 2022)
# Calls of active or inactive are those of the source. No cut-off for these calls is given here.
# Tests used:
# MCF7 = test: Antiproliferative activity against human MCF7 cells assessed as inhibition of cell growth incubated for 48 hrs by XTT assay; type: functional, cell-based; conditions: MCF7, 48 h
# HeLa [1] = test: Antiproliferative activity against human HeLa cells assessed as inhibition of cell growth incubated for 48 hrs by XTT assay; type: functional, cell-based
# PC-3 [2] = test: Antiproliferative activity against human PC-3 cells assessed as inhibition of cell growth incubated for 48 hrs by XTT assay; type: functional, cell-based; conditions: PC-3, 48 h
# HFF-1 = test: Cytotoxicity against HFF-1 cells assessed as reduction in cell viability at 1 to 2 uM incubated for 48 hrs by XTT assay; type: toxicity, cell-based; conditions: human, hff-1, 48 h, dose 1-2 µM
# NB1 = test: Cytotoxicity against human NB1 cells immortalized with hTERT plasmid assessed as reduction in cell viability at 1 to 2 uM incubated for 48 hrs by XTT assay; type: toxicity, cell-based; conditions: nb1, 48 h, dose 1-2 µM
# HeLa [3] = test: Inhibition of colony formation in human HeLa cells at IC50 incubated for 2 weeks with culture medium replacement for every 3 days by crystal violet staining based analysis; type: functional, cell-based
# PC-3 [4] = test: Inhibition of colony formation in human PC-3 cells at IC50 incubated for 2 weeks with culture medium replacement for every 3 days by crystal violet staining based analysis; type: functional, cell-based
# HeLa [5] = test: Induction of cell cycle arrest in human HeLa cells assessed as accumulation of cells at G1 phase at 1 uM incubated for 6 hrs by FACS flow cytometry analysis (reference value: 69.94 +/- 1.71 %); type: functional
# HeLa [6] = test: Induction of cell cycle arrest in human HeLa cells assessed as accumulation of cells at S phase at 1 uM incubated for 6 hrs by FACS flow cytometry analysis (reference value: 17.41 +/- 0.96 %); type: functional
# HeLa [7] = test: Induction of cell cycle arrest in human HeLa cells assessed as accumulation of cells at G2/M phase at 1 uM incubated for 6 hrs by FACS flow cytometry analysis (reference value: 12.66 +/- 0.88 %); type: functional
# HeLa [8] = test: Induction of cell cycle arrest in human HeLa cells assessed as accumulation of cells at G1 phase at 1 uM incubated for 18 hrs by FACS flow cytometry analysis (reference value: 69.94 +/- 1.25 %); type: functional
# HeLa [9] = test: Induction of cell cycle arrest in human HeLa cells assessed as accumulation of cells at S phase at 1 uM incubated for 18 hrs by FACS flow cytometry analysis (reference value: 17.41 +/- 1.16 %); type: functional
# HeLa [10] = test: Induction of cell cycle arrest in human HeLa cells assessed as accumulation of cells at G2/M phase at 1 uM incubated for 18 hrs by FACS flow cytometry analysis (reference value: 12.66 +/- 0.92 %); type: functional
# PC-3 [11] = test: Induction of cell cycle arrest in human PC-3 cells assessed as accumulation of cells at G1 phase at 1 uM incubated for 6 hrs by FACS flow cytometry analysis (reference value: 44.2 +/- 2.21 %); type: functional
# PC-3 [12] = test: Induction of cell cycle arrest in human PC-3 cells assessed as accumulation of cells at S phase at 1 uM incubated for 6 hrs by FACS flow cytometry analysis (reference value: 35.06 +/- 1.85 %); type: functional
# PC-3 [13] = test: Induction of cell cycle arrest in human PC-3 cells assessed as accumulation of cells at G2/M phase at 1 uM incubated for 6 hrs by FACS flow cytometry analysis (reference value: 20.74 +/- 1.93 %); type: functional
# PC-3 [14] = test: Induction of cell cycle arrest in human PC-3 cells assessed as accumulation of cells at G1 phase at 1 uM incubated for 12 hrs by FACS flow cytometry analysis (reference value: 44.2 +/- 2.01 %); type: functional
# PC-3 [15] = test: Induction of cell cycle arrest in human PC-3 cells assessed as accumulation of cells at S phase at 1 uM incubated for 12 hrs by FACS flow cytometry analysis (reference value: 35.06 +/- 1.36 %); type: functional
# PC-3 [16] = test: Induction of cell cycle arrest in human PC-3 cells assessed as accumulation of cells at G2/M phase at 1 uM incubated for 12 hrs by FACS flow cytometry analysis (reference value: 20.74 +/- 1.95 %); type: functional
# Tubulin (Homo sapiens) [17] = biological target: T1, Tubulin (Homo sapiens) (UniProt P68371+Q9H4B7+P0DPH7+P68366+Q13509+Q71U36+P04350+Q3ZCM7+P07437+P68363+Q9BQE3+Q6PEY2+Q13885+Q9BVA1+Q9BUF5); test: Inhibition of tubulin polymerization in human HeLa cells assessed as irregular cell morphology at 0.5 uM incubated for 6 hrs by DAPI staining based fluorescence microscopic analysis
# Tubulin (Homo sapiens) [18] = biological target: T1, Tubulin (Homo sapiens); test: Inhibition of tubulin polymerization in human HeLa cells assessed as aberrations in mitotic spindle and nucleus at 0.5 uM incubated for 6 hrs by DAPI staining based fluorescence microscopic analysis; type: cell-based
# Tubulin (Homo sapiens) [19] = biological target: T1, Tubulin (Homo sapiens); test: Inhibition of tubulin polymerization in human HeLa cells assessed as abnormal microtubule network at 0.5 uM incubated for 6 hrs by DAPI staining based fluorescence microscopic analysis; type: cell-based
# HeLa [20] = test: Induction of apoptosis in human HeLa cells assessed as viable cells at 1 uM incubated for 24 hrs by Annexin V-FITC/7-AAD staining based flow cytometric analysis (reference value: 85.6 +/- 1.061%); type: functional; conditions: read-out: Activity
# HeLa [21] = test: Induction of apoptosis in human HeLa cells assessed as early apoptotic cells at 1 uM incubated for 24 hrs by Annexin V-FITC/7-AAD staining based flow cytometric analysis (reference value: 2.7 +/- 0.424 %); type: functional
# HeLa [22] = test: Induction of apoptosis in human HeLa cells assessed as late apoptotic cells at 1 uM incubated for 24 hrs by Annexin V-FITC/7-AAD staining based flow cytometric analysis (reference value: 11.1 +/- 0.778 %); type: functional
# HeLa [23] = test: Induction of apoptosis in human HeLa cells assessed as dead cells at 1 uM incubated for 24 hrs by Annexin V-FITC/7-AAD staining based flow cytometric analysis (reference value: 0.6 +/- 0.707 %); type: functional
Structure (SMILES),IC50 (MCF7),IC50 (HeLa [1]),IC50 (PC-3 [2]),Activity (HFF-1),Activity (NB1),inhibition (HeLa [3]),inhibition (PC-3 [4]),Activity (HeLa [5]),Activity (HeLa [6]),Activity (HeLa [7]),Activity (HeLa [8]),Activity (HeLa [9]),Activity (HeLa [10]),Activity (PC-3 [11]),Activity (PC-3 [12]),Activity (PC-3 [13]),Activity (PC-3 [14]),Activity (PC-3 [15]),Activity (PC-3 [16]),inhibition (Tubulin (Homo sapiens) [17]),also measured
Cc1[nH]c2c(c1-c1nnc(-c3ccccc3)s1)Cc1ccccc1-2,0.555 µM,0.324 µM,0.38 µM,Non-Toxic,Non-Toxic,Active,Active,26.59%,40.38%,33.03%,22.86%,20.62%,56.51%,44.45%,21.51%,34.04%,15.37%,23.79%,60.84%,Active,inhibition (Tubulin (Homo sapiens) [18]): Active; inhibition (Tubulin (Homo sapiens) [19]): Active; viability at 1 µM (HeLa [20]): 63.8%; Activity (HeLa [21]): 9.2%; Activity (HeLa [22]): 22.7%; Activity (HeLa [23]): 4.3%
Cc1[nH]c2c(c1-c1nnc(-c3cccc(Cl)c3)[se]1)Cc1ccccc1-2,0.216 µM,0.083 µM,0.548 µM,Non-Toxic,Non-Toxic,Active,Active,27.87%,48.5%,23.63%,1.15%,9.44%,89.4%,10.43%,54.7%,34.87%,1.87%,8.65%,89.48%,Active,inhibition (Tubulin (Homo sapiens) [18]): Active; inhibition (Tubulin (Homo sapiens) [19]): Active; viability at 1 µM (HeLa [20]): 80.1%; Activity (HeLa [21]): 2.7%; Activity (HeLa [22]): 15.4%; Activity (HeLa [23]): 1.8%
Cc1[nH]c2c(c1-c1nnc(-c3ccccc3)[se]1)Cc1ccccc1-2,0.176 µM,0.009 µM,0.072 µM,Non-Toxic,Non-Toxic,Active,Active,24.24%,70.25%,5.51%,1.06%,10.36%,88.58%,8.76%,56.26%,34.99%,1.01%,6.68%,92.31%,Active,inhibition (Tubulin (Homo sapiens) [18]): Active; inhibition (Tubulin (Homo sapiens) [19]): Active; viability at 1 µM (HeLa [20]): 68%; Activity (HeLa [21]): 8.9%; Activity (HeLa [22]): 19.7%; Activity (HeLa [23]): 3.4%
Cc1[nH]c2c(c1-c1nnc(-c3ccc(Cl)cc3)s1)Cc1ccccc1-2,> 10 µM,> 10 µM,> 10 µM,–,–,–,–,–,–,–,–,–,–,–,–,–,–,–,–,–,–
Cc1[nH]c2c(c1-c1nnc(-c3ccccc3Cl)s1)Cc1ccccc1-2,0.468 µM,0.145 µM,0.176 µM,Non-Toxic,Non-Toxic,Active,Active,27.25%,68.91%,3.84%,1.49%,9.52%,88.99%,11.13%,51.2%,37.68%,1.71%,5.55%,92.74%,Active,inhibition (Tubulin (Homo sapiens) [18]): Active; inhibition (Tubulin (Homo sapiens) [19]): Active; viability at 1 µM (HeLa [20]): 44.8%; Activity (HeLa [21]): 31.9%; Activity (HeLa [22]): 17.4%; Activity (HeLa [23]): 5.9%
Cc1[nH]c2c(c1-c1nnc(-c3ccc(C(C)(C)C)cc3)s1)Cc1ccccc1-2,> 10 µM,> 10 µM,> 10 µM,–,–,–,–,–,–,–,–,–,–,–,–,–,–,–,–,–,–
COc1ccc(-c2nnc(-c3c(C)[nH]c4c3Cc3ccccc3-4)s2)cc1,> 10 µM,> 10 µM,> 10 µM,–,–,–,–,–,–,–,–,–,–,–,–,–,–,–,–,–,–
COc1cc(-c2nnc(-c3c(C)[nH]c4c3Cc3ccccc3-4)s2)cc(OC)c1OC,> 10 µM,> 10 µM,> 10 µM,–,–,–,–,–,–,–,–,–,–,–,–,–,–,–,–,–,–
Cc1[nH]c2c(c1-c1nnc(-c3ccc(C(C)(C)C)cc3)[se]1)Cc1ccccc1-2,> 10 µM,> 10 µM,> 10 µM,–,–,–,–,–,–,–,–,–,–,–,–,–,–,–,–,–,–
Cc1[nH]c2c(c1-c1nnc(-c3cccc(Cl)c3)s1)Cc1ccccc1-2,> 10 µM,> 10 µM,> 10 µM,–,–,–,–,–,–,–,–,–,–,–,–,–,–,–,–,–,–
COc1cc(-c2nnc(-c3c(C)[nH]c4c3Cc3ccccc3-4)[se]2)cc(OC)c1OC,> 10 µM,> 10 µM,> 10 µM,–,–,–,–,–,–,–,–,–,–,–,–,–,–,–,–,–,–
COc1ccc(-c2nnc(-c3c(C)[nH]c4c3Cc3ccccc3-4)[se]2)cc1,> 10 µM,> 10 µM,> 10 µM,–,–,–,–,–,–,–,–,–,–,–,–,–,–,–,–,–,–
Cc1[nH]c2c(c1-c1nnc(-c3ccc(Cl)c(Cl)c3)s1)Cc1ccccc1-2,> 10 µM,> 10 µM,> 10 µM,–,–,–,–,–,–,–,–,–,–,–,–,–,–,–,–,–,–
Cc1[nH]c2c(c1-c1nnc(-c3ccccc3Cl)[se]1)Cc1ccccc1-2,0.091 µM,0.005 µM,0.067 µM,Non-Toxic,Non-Toxic,Active,Active,41.62%,35.29%,23.09%,2.03%,12.5%,85.47%,13.15%,55.33%,31.52%,0.64%,5.7%,93.66%,Active,inhibition (Tubulin (Homo sapiens) [18]): Active; inhibition (Tubulin (Homo sapiens) [19]): Active; viability at 1 µM (HeLa [20]): 24.6%; Activity (HeLa [21]): 11.9%; Activity (HeLa [22]): 58.2%; Activity (HeLa [23]): 5.3%
Cc1[nH]c2c(c1-c1nnc(-c3ccc(Cl)c(Cl)c3)[se]1)Cc1ccccc1-2,> 10 µM,> 10 µM,> 10 µM,–,–,–,–,–,–,–,–,–,–,–,–,–,–,–,–,–,–
Cc1[nH]c2c(c1-c1nnc(-c3ccc(Cl)cc3)[se]1)Cc1ccccc1-2,> 10 µM,> 10 µM,> 10 µM,–,–,–,–,–,–,–,–,–,–,–,–,–,–,–,–,–,–
